biological target: T1, human β3 adrenergic receptor (Homo sapiens, UniProt P13945); assay: cAMP (SPA) response in CHO cells transfected with human β3 adrenergic receptor; type: cell-based; set-up: key: fraction of maximal isoproterenol (10^-5 M) response; conditions: maximal response relative to maximal response of isoproterenol at 10^-5 M
T1 construct: Full length β3 AR clones (402 amino acids) containing the last 6 amino acids of hβ3-AR are prepared; expressed in transfected cells; host or cells: CHO (Chinese hamster ovary) cells
T1 sequence (P13945 whole entry): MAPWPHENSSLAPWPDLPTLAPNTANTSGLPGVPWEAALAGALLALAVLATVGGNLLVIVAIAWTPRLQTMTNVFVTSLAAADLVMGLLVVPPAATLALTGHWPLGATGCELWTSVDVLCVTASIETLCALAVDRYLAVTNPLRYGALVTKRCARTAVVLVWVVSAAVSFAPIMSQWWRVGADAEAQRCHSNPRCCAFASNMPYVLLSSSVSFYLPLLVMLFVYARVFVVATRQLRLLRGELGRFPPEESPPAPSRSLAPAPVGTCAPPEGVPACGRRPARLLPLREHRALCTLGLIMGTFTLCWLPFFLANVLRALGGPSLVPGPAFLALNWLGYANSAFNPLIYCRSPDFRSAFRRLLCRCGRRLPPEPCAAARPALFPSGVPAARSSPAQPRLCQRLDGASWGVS
Experimental: Binding to the receptors was measured in Chinese Hamster ovary (CHO) cells that were transfected with adrenergic receptors.
The corresponding primer sequences are described in Mantzoros, C. […] The four fragments are ligated into a pUC 18 plasmid (Gibco-BRL) and sequenced.
CHO cells were grown in 24-well tissue culture plates in Dulbecco's Modified Eagle Media with 10% fetal bovine serum, MEM non-essential amino acids, Penicillin-Streptompycin and Geneticin. On the day of test procedure, growth medium was replaced with preincubation media (Dulbecco's Modified Eagle, Media) and incubated for 30 minutes at 37° C. […] Test compounds were tested over a concentration range of 10^−9 M to 10^−5 M for β3 cells and 10^−8 to 10^−4 M for β1 and β2 transfected cells. Isoproterenol (10^−5 M) was used as an internal standard for comparison of activity. Cells were incubated at 37° C. on a rocker for 30 min with the β3 cells and 15 min for β1 and β2 cells. Incubation was stopped with the addition of 0.2N HCl and neutralized with 2.5N NaOH. The plates, containing the cells and neutralized media, were stored at −20 degrees celsius until ready to test for cAMP using the SPA test kit (Amersham).
Data Analysis and Results: Data collected from the SPA test procedure were analyzed as percent of the maximal isoproterenol response at 10^−5 M. Activity curves were plotted using the SAS statistical and graphics software.

Row | IA(β3) | SMILES
1 | 1.15 | CC(=O)Nc1ccc(S(=O)(=O)Nc2ccc(N3CCC(NC[C@H](O)COc4cccc5[nH]c(=O)[nH]c45)CC3)cc2)cc1 [Example 274]
2 | 0.56 | COc1ccc(S(=O)(=O)Nc2ccc(N3CC(NC[C@H](O)COc4ccc(O)cc4)C3)cc2)cc1OC [Example 412, N-[4-(3-{[(2S)-2-hydroxy-3-(4-hydroxyphenoxy)propyl]amino}-1-azetidinyl)phenyl]-3,4-dimethoxybenzenesulfonamide]
3 | 0.55 | COc1ccc(S(=O)(=O)Nc2ccc(N3CCC(NCC(O)c4cccc(O)c4)CC3)cc2)cc1OC (stereo not shown) [Example 361, N-[4-(4-{[2-Hydroxy-2-(3-hydroxyphenyl)ethyl]amino}-1-piperidinyl)phenyl]-3,4-dimethoxybenzenesulfonamide]
4 | 0.64 | O=C(CCl)Nc1ccc(N2CCC(NC[C@H](O)COc3cccc4[nH]c(=O)[nH]c34)CC2)cc1 [Example 382, 2-Chloro-N-{4-[4-({(2S)-2-hydroxy-3-[(2-oxo-2,3-dihydro-1H-benzimidazol-4-yl)oxy]propyl}amino)-1-piperidinyl]phenyl}acetamide]
5 | 0.89 | O=c1[nH]c2cccc(OC[C@@H](O)CNC3CCN(c4ccc(NS(=O)(=O)c5ccc(C(F)(F)F)cc5)cc4)CC3)c2[nH]1 [Example 328]
6 | 0.35 | CCCCCCCCS(=O)(=O)Nc1ccc(N2CCC(NC[C@H](O)COc3ccc(O)cc3)CC2)cc1 [Example 304, N-[4-(4-{[(2S)-2-Hydroxy-3-(4-hydroxyphenoxy)propyl]amino}-1-piperidinyl)phenyl]-1-octanesulfonamide]
7 | 0.63 | O=C(NCc1ccc(S(=O)(=O)Nc2ccc(N3CCC(NC[C@H](O)COc4ccccc4)CC3)cc2)s1)c1ccccc1 [Example 348]
8 | 1.1 | CCCCS(=O)(=O)Nc1ccc(N2CCC(NC[C@H](O)COc3ccc(O)c4c3CCC(=O)N4)CC2)cc1 [Example 306, N-{4-[4-({(2S)-2-Hydroxy-3-[(8-hydroxy-2-oxo-1,2,3,4-tetrahydro-5-quinolinyl)oxy]-propyl}amino)-1-piperidinyl]phenyl}-1-butanesulfonamide]
9 | 0.73 | CCCCCCNC(=O)Nc1ccc(S(=O)(=O)Nc2ccc(N3CCC(NC[C@H](O)COc4cccc5[nH]c(=O)[nH]c45)CC3)cc2)cc1 [Example 275, 4-{[(Hexylamino)carbonyl]amino}-N-{4-[4-({(2S)-2-hydroxy-3-[(2-oxo-2,3-dihydro-1H-benzimidazol-4-yl)oxy]propyl}amino)-1-piperidinyl]phenyl}benzenesulfonamide]
10 | 0.87 | O=S(=O)(Nc1ccc(N2CCC(NC[C@@H](O)c3cccc(O)c3)CC2)cc1)c1cccs1 [Example 357, N-[4-(4-{[(2S)-2-Hydroxy-2-(3-hydroxyphenyl)ethyl]amino}-1-piperidinyl)phenyl]-2-thiophenesulfonamide]
11 | 0.92 | O=c1[nH]c2cccc(OC[C@@H](O)CNC3CCN(c4ccc(NS(=O)(=O)c5ccc(-c6ccon6)s5)cc4)CC3)c2[nH]1 [Example 287, N-{4-[4-({(2S)-2-Hydroxy-3-[(2-oxo-2,3-dihydro-1H-benzimidazol-4-yl)oxy]propyl}-amino)-1-piperidinyl]phenyl}-5-(3-isoxazolyl)-2-thiophenesulfonamide]
12 | 0.72 | COc1ccc(Br)cc1S(=O)(=O)N(c1ccc(N2CCC(NC[C@H](O)COc3cccc4[nH]c(=O)[nH]c34)CC2)cc1)S(=O)(=O)c1cc(Br)ccc1OC [Example 337]
13 | 1 | CCCCS(=O)(=O)N(CC(=O)OCc1ccccc1)c1ccc(N2CCC(NC[C@H](O)c3ccc(O)c(NS(C)(=O)=O)c3)CC2)cc1 [Example 342]
14 | 0.79 | COC(=O)COc1ccc(S(=O)(=O)Nc2ccc(N3CCC(NC[C@H](O)c4ccc(Cl)c(NS(C)(=O)=O)c4)CC3)cc2)cc1 [Example 319, Methyl{4-[(4-{4-[((2R)-2-{4-chloro-3-[(methylsulfonyl)amino]phenyl}-2-hydroxyethyl)amino]-1-piperidinyl}anilino)sulfonyl]phenoxy}acetate]
15 | 1 | COc1ccc(Br)cc1S(=O)(=O)Nc1ccc(N2CCC(NC[C@H](O)COc3cccc4[nH]c(=O)[nH]c34)CC2)cc1 [Example 338, 5-Bromo-N-{4-[4-(f{(2S)-2-hydroxy-3-[(2-oxo-2,3-dihydro-1H-benzimidazol-4-yl)oxy]propyl}amino)-1-piperidinyl]phenyl}-2-methoxybenzenesulfonamide]
16 | 0.94 | O=S(=O)(Nc1ccc(N2CCC(NC[C@H](O)COc3ccc(O)cc3)CC2)cc1)c1ccc(-c2ccccn2)s1 [Example 293, N-[4-(4-{[(2S)-2-Hydroxy-3-(4-hydroxyphenoxy)propyl]amino}-1-piperidinyl)phenyl]-5-(2-pyridinyl)-2-thiophenesulfonamide]
17 | 0.9 | O=c1[nH]c2cccc(OC[C@@H](O)CNC3CCN(c4ccc(NS(=O)(=O)c5cccs5)cc4)CC3)c2[nH]1 [Example 362, N-{4-[4-({(2S)-2-Hydroxy-3-[(2-oxo-2,3-dihydro-1H-benzimidazol-4-yl)oxy]propyl}-amino)-1-piperidinyl]phenyl}-2-thiophenesulfonamide]
18 | 0.7 | CC(=O)Nc1ccc(S(=O)(=O)Nc2ccc(N3CCC(NC[C@H](O)c4ccccc4)CC3)cc2)cc1 [Example 258, N-(4-{4-[4-((2R)-2-Hydroxy-2-phenyl-ethylamino)-piperidin-1-yl]-phenylsulfamoyl}-phenyl)-acetamide]
19 | 1.24 | CS(=O)(=O)Nc1cc(C(O)CNC2CCN(c3ccc(NS(=O)(=O)c4ccc(-n5nnn(CCCC6CCCC6)c5=O)cc4)cc3)CC2)ccc1O (stereo not shown) [Example 288, 4-[4-(3-Cyclopentyl-propyl)-5-oxo-4,5-dihydro-tetrazol-1-yl]-N-(4-{4-[2-hydroxy-2-(4-hydroxy-3-methanesulfonylamino-phenyl)-ethaylamino]-piperidin-1-yl}-phenyl)-benzenesulfonamide]
20 | 0.37 | CC(=O)Nc1ccc(S(=O)(=O)Nc2ccccc2N2CCC(NCC(O)c3cccc(O)c3)CC2)cc1 (stereo not shown) [Example 264, N-(4-{[2-(4-{[2-Hydroxy-2-(3-hydroxyphenyl)ethyl]amino}-1-piperidinyl)anilino]-sulfonyl}phenyl)acetamide]
21 | 0.73 | CC(=O)Nc1ccc(S(=O)(=O)Nc2ccc(N3CC(NC[C@H](O)COc4ccc(O)cc4)C3)cc2)cc1 [Example 413, N-(4-{[4-(3-{[(2S)-2-Hydroxy-3-(4-hydroxyphenoxy)propyl]amino}-1-azetidinyl)anilino]-sulfonyl}phenyl)acetamide]
22 | 0.54 | COc1ccc(S(=O)(=O)Nc2ccc(N3CCC(NC[C@H](O)COc4ccccc4)CC3)cc2)cc1OC [Example 360, N-[4-(4-{[(2S)-2-Hydroxy-3-phenoxypropyl]amino}-1-piperidinyl)phenyl]-3,4-dimethoxybenzenesulfonamide]
23 | 1 | O=c1[nH]c2cccc(OC[C@@H](O)CNC3CCN(c4ccc(NS(=O)(=O)c5ccc(Cl)cc5)cc4)CC3)c2[nH]1 [Example 331, 4-Chloro-N-{4-[4-({(2S)-2-hydroxy-3-[(2-oxo-2,3-dihydro-1H-benzimidazol-4-yl)oxy]propyl}amino)-1-piperidinyl]phenyl}benzenesulfonamide]
24 | 0.98 | COc1ccc(OC)c(S(=O)(=O)Nc2ccc(N3CCC(NC[C@H](O)c4ccc(O)c(NS(C)(=O)=O)c4)CC3)cc2)c1 [Example 335, N-(4-{4-[((2R)-2-Hydroxy-2-{4-hydroxy-3-[(methylsulfonyl)amino]phenyl}ethyl)amino]-1-piperidinyl}phenyl)-2,5-dimethoxybenzenesulfonamide]
25 | 0.97 | O=[N+]([O-])c1ccc(Oc2c(Cl)cc(S(=O)(=O)Nc3ccc(N4CCC(NC[C@H](O)COc5ccccc5)CC4)cc3)cc2Cl)c(Cl)c1 [Example 353, 3,5-Dichloro-4-(2-chloro-4-nitrophenoxy)-N-[4-(4-{[(2S)-2-hydroxy-3-phenoxypropyl]amino}-1-piperidinyl)phenyl]benzenesulfonamide]
26 | 1.04 | O=c1[nH]c2cccc(OC[C@@H](O)CNC3CCN(c4ccc(NS(=O)(=O)c5ccc(-c6ccccn6)s5)cc4)CC3)c2[nH]1 [Example 278, N-{4-[4-({(2S)-2-Hydroxy-3-[(2-oxo-2,3-dihydro-1H-benzimidazol-4-yl)oxy]propyl}-amino)-1-piperidinyl]phenyl}-5-(2-pyridinyl)-2-thiophenesulfonamide]
27 | 1.05 | CC(=O)Nc1ccc(S(=O)(=O)Nc2ccc(N3CCC(NCC(O)c4cc(C(N)=O)c5[nH]ccc5c4)CC3)cc2)cc1 (stereo not shown) [Example 273, 5-[2-({1-[4-({[4-(Acetylamino)phenyl]sulfonyl}amino)phenyl]-4-piperidinyl}amino)-1-hydroxyethyl]-1H-indole-7-carboxamide]
28 | 0.94 | CS(=O)(=O)Nc1cc([C@@H](O)CNC2CCN(c3ccc(NC(=O)NCC(=O)O)cc3)CC2)ccc1O [Example 378, {[(4-{4-[((2R)-2-Hydroxy-2-{4-hydroxy-3-[(methylsulfonyl)amino]phenyl}ethyl)amino]-1-piperidinyl}anilino)carbonyl]amino}acetic acid]

From patent US7022716B2, “Cyclic amine phenyl beta-3 adrenergic receptor agonists” (Wyeth, priority 2000, dated 2006)
